Several values for one entry are separate records, joined by “and”; a condition that tells them apart may be missing. Equal entries are not always repeated.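 Five concentrations, 48 hours, 96-well plates. Abbreviation: GI50, concentration required for 50% inhibition of growth. TGI: total growth inhibition.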
Legend:
Experiment in all cases: NCI-60 cell line screen, 48 h
BT-549 breast = tested on: BT-549 breast
CCRF-CEM leukemia = tested on: CCRF-CEM leukemia
EKVX NSCLC = tested on: EKVX NSCLC
HS 578T breast = tested on: HS 578T breast
T-47D breast = tested on: T-47D breast
DLD-1 colon = tested on: DLD-1 colon
KM20L2 colon = tested on: KM20L2 colon
SNB-78 CNS = tested on: SNB-78 CNS

O=C(CI)NC(=O)NC(=O)NCc1ccccc1
GI50 (BT-549 breast): 2.8 µM | TGI (BT-549 breast): 8.17 µM | GI50 (CCRF-CEM leukemia): 0.51 µM | TGI (CCRF-CEM leukemia): 2.14 µM | GI50 (EKVX NSCLC): 17.5 µM | TGI (EKVX NSCLC): 39.6 µM | GI50 (HS 578T breast): 20.9 µM | TGI (HS 578T breast): 72.4 µM | GI50 (T-47D breast): 2.48 µM | TGI (T-47D breast): 6.7 µM

Nc1c(C(=O)Nc2ccccc2)sc2nc3c(cc12)C(=O)CCC3
GI50 (BT-549 breast): 3.17 µM | TGI (BT-549 breast): > 100 µM | GI50 (CCRF-CEM leukemia): 0.374 µM | TGI (CCRF-CEM leukemia): > 100 µM | GI50 (EKVX NSCLC): 0.627 µM | TGI (EKVX NSCLC): > 100 µM | GI50 (HS 578T breast): 0.524 µM | TGI (HS 578T breast): > 72.4 µM | GI50 (T-47D breast): 1.46 µM | TGI (T-47D breast): > 100 µM

O=c1[nH]c(=S)[nH]c(O)c1/C=C1\C=Nc2ccccc21
GI50 (BT-549 breast): 9.92 µM | TGI (BT-549 breast): 37.4 µM | GI50 (CCRF-CEM leukemia): 2.12 µM | TGI (CCRF-CEM leukemia): 6.47 µM | GI50 (EKVX NSCLC): 7.14 µM | TGI (EKVX NSCLC): 32.8 µM | GI50 (HS 578T breast): 1.95 µM | TGI (HS 578T breast): 6.19 µM | GI50 (T-47D breast): 34.4 µM | TGI (T-47D breast): > 100 µM

CCN(CC)CCCC(Nc1c2ccc(Cl)cc2nc2ccc(OC)cc12)c1ccc(Cl)cc1 (centres undefined)
GI50 (BT-549 breast): 1.7 µM | TGI (BT-549 breast): 3.47 µM | GI50 (CCRF-CEM leukemia): 0.53 µM | TGI (CCRF-CEM leukemia): 2.07 µM | GI50 (EKVX NSCLC): 1.35 µM | TGI (EKVX NSCLC): 2.96 µM | GI50 (T-47D breast): 1.85 µM | TGI (T-47D breast): 3.96 µM

COC(=O)[C@]12CC[C@@H](C)[C@H](C)[C@@H]1C1=CC[C@@H]3[C@@]4(C)C(C=O)=C[C@@](C)(COS(C)(=O)=O)C4=CC[C@@]3(C)[C@]1(C)CC2
GI50 (BT-549 breast): 0.211 µM | TGI (BT-549 breast): 0.63 µM | GI50 (CCRF-CEM leukemia): 0.324 µM | TGI (CCRF-CEM leukemia): 1.47 µM | GI50 (EKVX NSCLC): 0.315 µM | TGI (EKVX NSCLC): 1.34 µM | GI50 (HS 578T breast): 0.234 µM | TGI (HS 578T breast): 0.711 µM | GI50 (T-47D breast): 0.158 µM | TGI (T-47D breast): 0.47 µM

NC(=O)c1nc(-c2c(F)cccc2Cl)oc1Nc1ccc(C(=O)N2CCOCC2)cc1
GI50 (BT-549 breast): 3.62 µM | TGI (BT-549 breast): 54.6 µM | GI50 (CCRF-CEM leukemia): 0.4 µM | TGI (CCRF-CEM leukemia): > 100 µM | GI50 (EKVX NSCLC): 12.2 µM | TGI (EKVX NSCLC): > 100 µM | GI50 (T-47D breast): 3.46 µM | TGI (T-47D breast): 62.7 µM

CCOC(=O)c1cc(C(=O)c2ccc(OC)c(OC)c2)n2c1ccc1ccc3cccnc3c12
GI50 (BT-549 breast): 1.94 µM | TGI (BT-549 breast): > 100 µM | GI50 (CCRF-CEM leukemia): 3.13 µM | TGI (CCRF-CEM leukemia): > 100 µM | GI50 (EKVX NSCLC): 4.14 µM | TGI (EKVX NSCLC): > 100 µM | GI50 (HS 578T breast): 3.04 µM | TGI (HS 578T breast): > 100 µM | GI50 (T-47D breast): 2.37 µM | TGI (T-47D breast): > 100 µM

CCOC(=O)[C@@H](C)C[C@H](Cc1ccccc1)NC(=O)c1csc([C@@H](C[C@H](C(C)C)N(C)C(=O)CNC(=O)[C@H]2CCCCN2C)OC(C)=O)n1
GI50 (BT-549 breast): 0.891 µM | TGI (BT-549 breast): > 14.3 µM | GI50 (CCRF-CEM leukemia): 1.08 µM | TGI (CCRF-CEM leukemia): > 14.3 µM | GI50 (EKVX NSCLC): 1.97 µM | TGI (EKVX NSCLC): > 14.3 µM | GI50 (HS 578T breast): 1.5 µM | TGI (HS 578T breast): > 8.43 µM | GI50 (T-47D breast): 0.59 µM | TGI (T-47D breast): > 14.3 µM

COc1cc([C@@H]2c3cc4c(cc3[C@H](SC(=N)N)[C@H]3COC(=O)[C@H]23)OCO4)cc(OC)c1OC
GI50 (BT-549 breast): 2.3 µM | GI50 (CCRF-CEM leukemia): 0.299 µM | TGI (CCRF-CEM leukemia): > 100 µM | GI50 (EKVX NSCLC): 0.291 µM | TGI (EKVX NSCLC): > 100 µM | GI50 (HS 578T breast): 0.264 µM | TGI (HS 578T breast): > 100 µM | GI50 (T-47D breast): 66.7 µM | TGI (T-47D breast): > 100 µM

O=c1[nH]c2ccccc2cc1-c1nnc(Cc2ccccc2)o1
GI50 (BT-549 breast): 2.56 µM | TGI (BT-549 breast): 10.2 µM | GI50 (CCRF-CEM leukemia): 1.7 µM | TGI (CCRF-CEM leukemia): 7.79 µM | GI50 (HS 578T breast): 13.3 µM | TGI (HS 578T breast): > 100 µM | GI50 (T-47D breast): 3.04 µM | TGI (T-47D breast): 17.1 µM

S=C(Sc1ccc(Cl)cc1)Sc1ccc(Cl)cc1
GI50 (BT-549 breast): 1.21 µM | TGI (BT-549 breast): 3.16 µM | GI50 (CCRF-CEM leukemia): 0.409 µM | TGI (CCRF-CEM leukemia): 2.56 µM | GI50 (EKVX NSCLC): 3.03 µM | TGI (EKVX NSCLC): 13.6 µM | GI50 (HS 578T breast): 3.96 µM | TGI (HS 578T breast): 16.3 µM | GI50 (T-47D breast): 1.94 µM | TGI (T-47D breast): 5.72 µM

COc1ccc([C@@]23Oc4cc(OC)cc(OC)c4[C@]2(O)[C@H](O)[C@H](C(=O)N(C)C)[C@H]3c2ccccc2)cc1
GI50 (CCRF-CEM leukemia): 0.0185 µM | TGI (EKVX NSCLC): 0.22 µM and 0.17 µM | GI50 (HS 578T breast): 0.0225 µM | TGI (T-47D breast): 0.044 µM and 0.0052 µM

CN(C)C1C(=O)C(C(N)=O)=C(O)C2(O)C(=O)C3=C(O)c4c(O)cccc4C(C)(O)C3CC12.[Cl][Sb]([Cl])[Cl] (centres undefined)
GI50 (BT-549 breast): 2.95 µM | TGI (BT-549 breast): 10.4 µM | GI50 (CCRF-CEM leukemia): 2.39 µM | TGI (CCRF-CEM leukemia): 11.2 µM | GI50 (EKVX NSCLC): 2.96 µM | TGI (EKVX NSCLC): 8.01 µM | GI50 (HS 578T breast): 3 µM | TGI (HS 578T breast): > 100 µM | GI50 (T-47D breast): 3.81 µM | TGI (T-47D breast): 13.2 µM

C#COc1cccc(Nc2ncnc3cc(NC(=O)[C@@H](C)Cl)ccc23)c1
GI50 (BT-549 breast): 6.89 µM | TGI (BT-549 breast): > 62.5 µM | GI50 (CCRF-CEM leukemia): 7.45 µM | TGI (CCRF-CEM leukemia): > 62.5 µM | GI50 (EKVX NSCLC): 28.7 µM | TGI (EKVX NSCLC): > 62.5 µM | GI50 (HS 578T breast): 7.88 µM | TGI (HS 578T breast): > 62.5 µM | GI50 (T-47D breast): 22.5 µM | TGI (T-47D breast): > 62.5 µM

CN(C)CCCOc1ccc(NC2=C(Cl)C(=O)C(Nc3ccc(OCCCN(C)C)cc3)=C(Cl)C2=O)cc1
GI50 (BT-549 breast): 1.71 µM | TGI (BT-549 breast): 3.08 µM | GI50 (CCRF-CEM leukemia): 0.272 µM | TGI (CCRF-CEM leukemia): 2.95 µM | GI50 (EKVX NSCLC): 0.582 µM | TGI (EKVX NSCLC): 1.26 µM | GI50 (HS 578T breast): 1.59 µM | TGI (HS 578T breast): 4.2 µM | GI50 (T-47D breast): 1.96 µM | TGI (T-47D breast): 4.96 µM

OCC1OC(OC2(CO)OC(CO)C(O)C2O)C(O)C(O)C1O (centres undefined)
GI50 (BT-549 breast): > 100 µM | TGI (BT-549 breast): > 100 µM | GI50 (CCRF-CEM leukemia): > 100 µM | TGI (CCRF-CEM leukemia): > 100 µM | GI50 (EKVX NSCLC): > 100 µM | TGI (EKVX NSCLC): > 100 µM | GI50 (T-47D breast): > 100 µM | TGI (T-47D breast): > 100 µM

Nc1ncnc2c1c(-c1ccc(Oc3ccccc3)cc1)nn2CC1SSCC1O (centres undefined)
GI50 (BT-549 breast): 7.11 µM | TGI (BT-549 breast): 17.1 µM | GI50 (CCRF-CEM leukemia): 0.138 µM | TGI (CCRF-CEM leukemia): 32.5 µM | GI50 (EKVX NSCLC): 1.04 µM | TGI (EKVX NSCLC): 6.25 µM | GI50 (HS 578T breast): 5.84 µM | TGI (HS 578T breast): 19.3 µM | GI50 (T-47D breast): 0.653 µM | TGI (T-47D breast): 1.85 µM

Nc1nc(Cl)c2ncn(Cc3ccc(C45CC6CC(CC(C6)C4)C5)c(OCc4cc(F)c(F)cc4F)c3)c2n1
GI50 (BT-549 breast): 3.86 µM | TGI (BT-549 breast): 13 µM | GI50 (CCRF-CEM leukemia): 1.66 µM | TGI (CCRF-CEM leukemia): 4.16 µM | GI50 (EKVX NSCLC): 10.8 µM | TGI (EKVX NSCLC): 67.1 µM | GI50 (HS 578T breast): 12.1 µM | TGI (HS 578T breast): 71.3 µM | GI50 (T-47D breast): 6.75 µM | TGI (T-47D breast): 44.8 µM

C/C(=C/CCC(C)[C@@H]1CC[C@]2(C)C3=C(CC[C@@]12C)[C@@]1(C)CCC(=O)C(C)(C)[C@@H]1CC3)C(=O)O (some centres undefined)
GI50 (BT-549 breast): 1.17 µM | TGI (BT-549 breast): 2.45 µM | GI50 (CCRF-CEM leukemia): 0.708 µM | TGI (CCRF-CEM leukemia): 2.5 µM | GI50 (EKVX NSCLC): 0.705 µM | TGI (EKVX NSCLC): 2.19 µM | GI50 (HS 578T breast): 1.45 µM | TGI (HS 578T breast): 3.4 µM | GI50 (T-47D breast): 1.14 µM | TGI (T-47D breast): 3.08 µM

CC(=O)Nc1cccc(C#Cc2cncnc2Nc2ccc(OCc3cccc(F)c3)c(Cl)c2)c1
GI50 (BT-549 breast): 11.9 µM | TGI (BT-549 breast): > 25 µM | GI50 (CCRF-CEM leukemia): 10.2 µM | TGI (CCRF-CEM leukemia): > 25 µM | GI50 (EKVX NSCLC): 2.01 µM | TGI (EKVX NSCLC): > 21.5 µM | GI50 (HS 578T breast): 10.2 µM | TGI (HS 578T breast): > 25 µM | GI50 (T-47D breast): 3.7 µM | TGI (T-47D breast): > 25 µM

C#Cc1cccc(NC(=O)/C=C\C(=O)O)c1
TGI (CCRF-CEM leukemia): > 100 µM | TGI (DLD-1 colon): > 100 µM | TGI (EKVX NSCLC): > 100 µM | TGI (KM20L2 colon): > 100 µM | TGI (SNB-78 CNS): > 100 µM

Nc1nc(-c2ccccc2)c(CC(=O)O)s1
TGI (BT-549 breast): > 100 µM | TGI (EKVX NSCLC): > 100 µM | TGI (HS 578T breast): > 100 µM | TGI (T-47D breast): > 100 µM

— PubChem BioAssay (NCI)
